Measurements reported in patent US7533723B2, “Well bore treatment fluid” (Schlumberger Technology Corporation, priority 2003, dated 2009).
Several values for one entry are separate records, joined by “and”; a condition that tells them apart may be missing. Equal values may be shown once. Each block holds one compound with its values, some of them ahead of it.

Columns and labels:
[1] = Description: For the case of abietic acid, calcium abietate (Dertocal), polymerised calcium abietate (MERIGRAL™) and the phenolic modified resins (RESENOL™ and GRANOLITE™), insoluble residues were removed by filtration and the numbers given in Table 1 relate to the soluble fraction after filtration.
[2] = Well-mixed bottle tests: dilution of treatment fluid with brine or oil; type: physicochemical; details: T=25° C.
Text: In this case, the DPM solvent is 100% miscible with oil or brine.
Note that the oil and the treatment fluid are miscible.

[3] = Selective response in porous media, two feet long sandpacks (water zone / oil zone); details: for Brine permeability reduction corrected for treatment depth: water zone
Protocol: Candidate solvent-based treatment fluids were evaluated in porous media. […] Duplicate two feet long sandpacks were prepared using a specific blend of sand and silica flour.
Experiments were used to evaluate a treatment fluid containing 5 wt % calcium abietate pre-dissolved in a DPM/brine mixture.

[4] = remark: listed apart in the source
Protocol: Sandpack experiments were performed to evaluate the recovery of oil permeability after brine-induced precipitation.
The permeability ratio K(oil)/initial K(brine) is shown on the vertical y axis and this is plotted against the brine saturation (vol %) in the core.
The dark curve plotted with diamonds relates to the experiment wherein the starting point is a 10-ft pack saturated with brine (Sw=1, brine permeability Kw=960 mD). Oil is then flushed through it until the steady state is reached. During this operation, the water saturation in the pack decreases as water is mobilized and removed by the flow of oil. The oil permeability (Ko) is determined regularly during the process. The ratio K(oil)/initial K(brine) is then calculated and plotted against the water saturation. The oil permeability at steady state is 1300 mD, which gives Ko/Kwi=1.35 at Sw=29.5%.
The lighter curve plotted with triangles relates to the experiment wherein the 10-ft pack is saturated with brine (Sw=1, brine permeability Kw=800 mD). Half of it is then treated with 5 wt % resinate (calcium abietate, Dertocal) dissolved in solvent (DPM). Brine is then backflowed through the pack until the steady state is reached. […] Then, oil is flushed through the pack until the steady state is reached (Ko=1061 mD). Again, the ratio K(oil)/initial K(brine) is calculated and plotted against the water saturation. […]

[5] = Brine follow-up treatments, series of 3 treatments in 2-ft sand pack; details: 10 wt % in DPM
Protocol: The selective response to injections of treatment fluid and brine was carried out in porous media.
An experiment was performed in a 2-ft sand pack at ambient temperature and Sw=1. The experiment consisted in a series of 3 pack treatments (using a process of treatment fluid injection followed by brine injection), followed by brine backflow between each of the three treatments. The fluid used was 10 wt % resinate (calcium abietate, Dertocal) dissolved in DPM.
The volume of the treated zone is ⅔ of the pore volume (⅓ treatment fluid+⅓ brine). As shown, permeability reduced with each treatment.

[6] = Berea sandstone permeability experiments; details: 10 wt % in DPM, brine postflush, 20 psi/ft
Protocol: An experiment was performed in a 1 foot 250 mD Berea sandstone core at Sw=1, using a process of treatment fluid injection followed by follow-up brine injection.
Treatment fluid used: 10 wt % resinate (Calcium abietate, Dertocal) in solvent (DPM). The volume of the treated zone was ⅔ of the pore volume (⅓ treatment fluid+⅓ brine).
Brine permeability before treatment: 250 mD.
Brine permeability in the treated zone was reduced by 70%. The biggest damage (precipitation) appeared near the wellbore (region 1) where the reduction was 73%.
The biggest damage appeared near the wellbore (regions 1) where the reduction was 60%.

[7] = Abietate in pure diesel, Berea sandstone water and oil zones; details: 30 wt % dissolved in diesel, 50° C.
Protocol: The plot of FIG. 9 deals with the performance in water zones at 50° C. (Berea sandstone, k 100-150 mD; brine: 5 wt % NH4Cl in DI water) of the oil-based system (no miscibility with water/brine). The system contained 30 wt % calcium abietate dissolved in diesel.
The damage in the water zone was a function of the oil saturation prior to treatment. […] Since the brine and diesel-based treatment fluid are immiscible, it is unlikely that the precipitation of waxy solids accounts for the damage observed. Whilst it is possible that some minor precipitation may occur at interfaces, we suspect a viscous oil or viscous interface effect may be playing a role in reducing kbrine after backflow to steady-state.

Solubility, Brine wt % [1]: 0.01 wt % | Solubility, Solvent wt % (solvent chemistry) [1]: ≧30 (DPM^(3)), ≧30 (EB^(4)) wt % | Behaviour on dilution with brine: [brine] at precipitation ([2]; 5 wt % dissolved in pure DPM): [brine] = 33 vol %
Compound: CC(C)C1=CC2=CCC3[C@](C)(CCC[C@@]3(C)C(=O)O)C2CC1 (stereo partly drawn) [Abietic Acid, Abietic acid]

Compound: CC(C)C1=CC2=CCC3C(C)(C(=O)O)CCCC3(C)C2CC1 (stereo not drawn) [Ca Abietate, Calcium abietate]
Solubility, Brine wt % [1]: 0.01 wt % | Behaviour on dilution with brine: [brine] at precipitation ([2]; 5 wt % dissolved in pure DPM): [brine] = 23 vol % | Brine permeability reduction corrected for treatment depth ([3]; 5 wt % pre-dissolved in DPM/brine mixture): 54% | Brine permeability reduction corrected for treatment depth ([3]; 20 wt % in DPM, 20 psi/ft, 25° C.): 65% and 69% | Effect on permeability to oil ([3]; not told): no effect on permeability to oil | Brine permeability reduction ([4]; 5 wt % in DPM, half of 10-ft pack treated, brine backflow to steady state): 25% | Oil permeability Ko at steady state after oil flush ([4]; not told): 1061 mD | % Reduction (cumulative) ([5]; after treatment I): 51% | % Reduction (cumulative) ([5]; after treatment II): 72% | % Reduction (cumulative) ([5]; after treatment III): 88% | Brine permeability reduction in the treated zone ([6]; T=60° C.): 33.5% | Brine permeability reduction near the wellbore (regions 1) ([6]; T=60° C.): 60% | Brine permeability reduction in the treated zone ([6]; ambient temperature): 70% | Brine permeability reduction near the wellbore (region 1) ([6]; ambient temperature): 73% | % retained koil in oil zones [7]: 85-100% | kbrine reduction in water zones ([7]; So(pre-treatment) range 0-25%, brine 5 wt % NH4Cl): ≥ 70%

Solubility, Brine wt % [1]: very | Solubility, Oil wt % [1]: ≧50.0^(7) wt % | Solubility, Solvent wt % (solvent chemistry) [1]: ≧50.0 (DPM^(3)) wt %
Compound: CC12CCC(CC1=O)C2(C)C (stereo not drawn) [Camphor, camphor]

Compound: calcium neo-decanoate [Ca neo-Decanoate (dry^B)]
Behaviour on dilution with brine: [brine] at precipitation ([2]; 10 wt % dissolved in pure DPM): [brine] = 67 vol %

Compound: calcium neo-tridecanoate [Ca neo-Tridecanoate (dry)]
Behaviour on dilution with brine: [brine] at precipitation ([2]; 10 wt % dissolved in pure DPM): [brine] = 70 vol %
